Test results published in ChEMBL document CHEMBL1201862, “PubChem BioAssay data set” (2004).
Values joined by “and” are separate entries in the source; they are usually repeats but may differ in a detail not shown here. Identical values can stand only once.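 Tested at 5 concentrations; 48 h exposure; 96-well plates; endpoints linearly interpolated, else capped at highest concentration. The concentration for 50% growth inhibition is given as GI50.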 Active and inactive are the calls of the source. Rule as the data show it: active = GI50 up to about 1.1 µM and inactive = higher.

Legend:
Experiment in all cases: NCI tumour cell line growth inhibition, 48 h
CCRF-CEM = tested on: CCRF-CEM
EKVX = tested on: EKVX
HCC 2998 = tested on: HCC 2998
HCT-116 = tested on: HCT-116
Hs-578T = tested on: Hs-578T
IGROV-1 = tested on: IGROV-1
K562 = tested on: K562
KM12 = tested on: KM12
MCF7 = tested on: MCF7
MDA-MB-435 = tested on: MDA-MB-435
Malme-3M = tested on: Malme-3M
NCI-H460 = tested on: NCI-H460
OVCAR-8 = tested on: OVCAR-8
SF-295 = tested on: SF-295
SK-MEL-28 = tested on: SK-MEL-28
SK-OV-3 = tested on: SK-OV-3
SW-620 = tested on: SW-620
UACC-257 = tested on: UACC-257
SF-539 = tested on: SF-539
HOP-92 = tested on: HOP-92

Measured: GI50

CCOC(=O)Cc1[nH]c(C(=O)c2ccccc2)cc1C(=O)c1ccccc1
inactive: CCRF-CEM > 10 µM | EKVX > 100 µM | HCC 2998 50.4 µM | HCT-116 17.5 µM | Hs-578T > 100 µM | IGROV-1 > 10 µM | K562 > 10 µM | KM12 48.9 µM | MCF7 > 10 µM | MDA-MB-435 13.8 µM | Malme-3M 33.6 µM | NCI-H460 71.8 µM | OVCAR-8 > 10 µM | SF-295 > 10 µM | SK-MEL-28 > 10 µM | SK-OV-3 > 100 µM | SW-620 > 100 µM | UACC-257 > 10 µM

C=CCOc1ccc(N)c([N+](=O)[O-])c1
inactive: CCRF-CEM > 100 µM | EKVX > 100 µM | HCC 2998 > 100 µM | HCT-116 > 100 µM | Hs-578T > 100 µM | IGROV-1 > 100 µM | K562 > 100 µM | KM12 > 100 µM | MCF7 > 100 µM | MDA-MB-435 > 100 µM | Malme-3M > 100 µM | OVCAR-8 > 100 µM | SF-295 > 100 µM | SF-539 > 100 µM | SK-MEL-28 > 100 µM | SK-OV-3 > 100 µM | SW-620 > 100 µM | UACC-257 > 100 µM

Cc1ccc(S(=O)(=O)N/N=C2\C(=O)Nc3cc(O)c(C(=O)O)cc32)cc1
inactive: CCRF-CEM > 100 µM | EKVX 61.8 µM | HCC 2998 > 100 µM | HCT-116 > 100 µM | Hs-578T > 100 µM | IGROV-1 > 100 µM | K562 > 100 µM | KM12 > 100 µM | MCF7 > 100 µM | MDA-MB-435 > 100 µM | Malme-3M > 100 µM | NCI-H460 > 100 µM | OVCAR-8 > 100 µM | SF-295 > 100 µM | SK-MEL-28 > 100 µM | SK-OV-3 > 100 µM | SW-620 > 100 µM | UACC-257 > 100 µM

Cc1nc(Nc2ccc(F)cc2)c2sc(=S)n(-c3ccc(F)cc3)c2n1
inactive: EKVX 13.1 µM | HCC 2998 12.2 µM | HCT-116 3.74 µM | Hs-578T 14.5 µM | IGROV-1 10.6 µM | K562 33.2 µM | KM12 15 µM | MCF7 5.5 µM | MDA-MB-435 10.8 µM | Malme-3M 14.6 µM | NCI-H460 15.5 µM | OVCAR-8 15.6 µM | SF-295 14.3 µM | SK-MEL-28 14.7 µM | SK-OV-3 19.4 µM | SW-620 9.77 µM | UACC-257 13.4 µM

COc1ccccc1/N=N/c1c(O)ccc2ccccc12
inactive: HCC 2998 21.3 µM | HCT-116 33.4 µM and 29 µM | HOP-92 22.8 µM and 14.6 µM | Hs-578T 28.7 µM and 26.6 µM | K562 > 100 µM and 82.8 µM | KM12 51.6 µM and > 45.5 µM | MCF7 52.8 µM | MDA-MB-435 74 µM and 78.2 µM | NCI-H460 18.9 µM | OVCAR-8 25.8 µM and 30.3 µM | SF-295 20 µM and 28.5 µM | SK-MEL-28 85.3 µM | SK-OV-3 13.6 µM and 18.3 µM | SW-620 56.8 µM and 66.7 µM

Nc1ccn(C2CC(O)C(COP(=O)(S)OC3CC(n4ccc(N)nc4=O)OC3CO)O2)c(=O)n1 (configuration not stated)
inactive: CCRF-CEM > 100 µM | EKVX > 100 µM | HCC 2998 > 100 µM | HCT-116 > 100 µM | HOP-92 > 100 µM | Hs-578T > 100 µM | IGROV-1 > 100 µM | KM12 > 100 µM | MCF7 > 100 µM | MDA-MB-435 > 100 µM | NCI-H460 > 100 µM | OVCAR-8 > 100 µM | SF-295 > 100 µM | SF-539 > 100 µM | SK-MEL-28 > 100 µM | SW-620 > 100 µM | UACC-257 > 100 µM

O=C1c2ccccc2C(=O)c2c1c1cc(O)ccc1n2Cc1ccc(Cl)cc1Cl
inactive: CCRF-CEM 4.12 µM | HCT-116 6.18 µM | Hs-578T 14 µM | IGROV-1 6.98 µM | K562 32.2 µM | KM12 14.4 µM | MCF7 4.11 µM | MDA-MB-435 9.42 µM | Malme-3M 22.8 µM | NCI-H460 3.63 µM | OVCAR-8 4.57 µM | SF-295 7.5 µM | SF-539 3.97 µM | SK-MEL-28 17.3 µM | SK-OV-3 1.75 µM | SW-620 8.17 µM | UACC-257 25.1 µM

COc1cccc(/C=N/n2c(Cc3ccccc3)n[nH]c2=O)c1
inactive: CCRF-CEM > 100 µM | EKVX > 72.6 µM | HCC 2998 > 100 µM | HCT-116 > 100 µM | Hs-578T 26.7 µM | K562 > 100 µM | KM12 > 76.2 µM | MCF7 > 100 µM | MDA-MB-435 > 100 µM | Malme-3M > 67.6 µM | NCI-H460 > 100 µM | OVCAR-8 69 µM | SF-295 38.5 µM | SF-539 > 100 µM | SK-MEL-28 > 100 µM | SK-OV-3 > 100 µM | SW-620 > 100 µM | UACC-257 > 100 µM
